PMC7395068, “The evolution of strategies to minimise the risk of human drug-induced liver injury (DILI) in drug discovery and development” (Archives of Toxicology, 2020)
Like-named read-outs stand apart in the source and are kept apart here.

Tests used:
[1] = cited from earlier work
[2] = Plasma free fraction (fu) and unbound Cmax (Cmax,u); assay type: in vitro ADME, human; settings: unbound plasma Cmax
Protocol: The prediction of DILI severity was evaluated further using the 3D combined HCI assays using plasma-free fraction. The majority of fu values were obtained from literature, when unavailable in-house prediction was utilised. Unbound plasma Cmax concentrations (Cmax,u) were derived by multiplying total plasma Cmax with the corresponding free fraction (fu) for each compound.

HepG2 = tested on: HepG2; design: method as in Albrecht 2019; settings: In vitro Assay; ref Albrecht 2019; cited from earlier work
HepaRG spheroids = experiment: Combined HCI (HCS) and cellular ATP 3D assay in HepaRG spheroids; settings: for AC50 / minimal effective concentration: Homo sapiens
HepG2 cells [3] = settings: cited from earlier work; for Structural based (HCI): In vitro Assay, ref O'Brien 2006
hLiMTs [4] = settings: cited from earlier work
hLiMTs [5] = experiment: Combined HCI (HCS) and cellular ATP 3D assay in hLiMTs; settings: for AC50 / minimal effective concentration: Homo sapiens
[6] = tested on: THLE or HepG2 cells, isolated mitochondria, BSEP; settings: cited from earlier work; for Partition Hybrid HRM Score / Ro2 Hybrid HRM Score: In vitro Assay, ref Aleo 2019
PHH [7] = settings: cited from earlier work
[8] = read-out: Human plasma Cmax; total plasma Cmax.tot, median of 9 literature references; cited from earlier work
[9] = cited from earlier work; remark: listed apart in the source
[10] = plasma free fraction; cited from earlier work
PHH spheroids = settings: cited from earlier work; for hLiMTs ATP <20 x Cmax: In vitro Assay, ref Vorrink 2018
PHH [11] = settings: In vitro Assay; ref Albrecht 2019; cited from earlier work
[12] = ref Chen 2011; cited from earlier work
rBsep = settings: In vitro Assay; ref Dawson 2012; cited from earlier work
human hepatocytes = settings: In vitro Assay; ref Xu 2008; cited from earlier work
[13] = tested on: HepG2 cells, primary human hepatocytes; settings: In vitro Assay; ref Garside 2014; cited from earlier work
HepG2 cells [14] = settings: In vitro Assay; ref Persson 2013; cited from earlier work
[15] = tested on: THLE-Null and THLE-3A4 cells; settings: In vitro Assay; ref Gustafsson 2014; cited from earlier work
[16] = tested on: primary human hepatocytes, NIH3T3 fibroblasts, BSEP, CYP3A4; settings: In vitro Assay; ref Schadt 2015; cited from earlier work
[17] = Microtissue model structural based (HCI), combined HCS and ATP, MEC < 25 × Cmax.tot cut-off
[18] = In vitro Assay, ref Proctor 2017
[19] = Modeled in vitro assays (cytotoxicity, mitochondrial dysfunction, BSEP), ref Aleo et al. 2019

CN(C)CCC(c1ccc(Cl)cc1)c1ccccn1 (stereo not shown) [chlorpheniramine]
Assigned DILI category ([1]; Chen et al. 2016 or literature alignment, ref Chen et al. 2016): 1 | In vivo DILI ([1]; ref Albrecht 2019): -VE | In vivo DILI ([1]; ref Aleo 2019): -VE | In vivo DILI ([1]; ref O'Brien 2006): -VE | In vivo DILI ([1]; ref Proctor 2017): +VE | In vivo DILI ([1]; ref Vorrink 2018): -VE | In vivo DILI ([1]; ref Xu 2008): +VE | Human plasma Cmax,u [2]: 101 nM | Cytotoxicity HepG2 48 hrs (HepG2): -VE | HepaRG <25x Avg Cmax ATP (HepaRG spheroids; HepaRG, ATP endpoint, cut-off <25x Avg Cmax): -ve | HepaRG <100x Avg Cmaxu ATP (HepaRG spheroids; HepaRG, ATP endpoint, cut-off <100x Avg Cmaxu): -ve | HepaRG <25x Avg Cmax HCS (HepaRG spheroids; HepaRG, HCS endpoints, cut-off <25x Avg Cmax): -ve | HepaRG <100x Avg Cmaxu HCS (HepaRG spheroids; HepaRG, HCS endpoints, cut-off <100x Avg Cmaxu): -ve | HepaRG <25x Avg Cmax All (HepaRG spheroids; HepaRG, all endpoints (ATP and HCS), cut-off <25x Avg Cmax): -ve | HepaRG Cmax max All (HepaRG spheroids; HepaRG, all endpoints, Cmax max used): -ve | HepaRG Cmax min All (HepaRG spheroids; HepaRG, all endpoints, Cmax min used): -ve | HepaRG <10 uM All (HepaRG spheroids; HepaRG, all endpoints, cut-off <10 uM): -ve | HepaRG <100x Avg Cmaxu All (HepaRG spheroids; HepaRG, all endpoints, cut-off <100x Avg Cmaxu): -ve | AC50 (HepaRG spheroids; HepaRG, read-out: ATP endpoint AC50): 129 µM | minimal effective concentration (HepaRG spheroids; HepaRG, read-out: ATP endpoint MEC): 120 µM | AC50 (HepaRG spheroids; HepaRG, read-out: HCS endpoint AC50): 119 µM | minimal effective concentration (HepaRG spheroids; HepaRG, read-out: HCS endpoint MEC): 14.3 µM | DILI prediction HepaRG spheroids (HCS-MEC) (HepaRG spheroids; [17]): -VE | Structural based (HCI) (HepG2 cells [3]): +VE | DILI in vitro assay prediction, O'Brien (2006) (HepG2 cells [3]; Structural based (HCI), HepG2, ref O'Brien et al. 2006): -VE | hLiMTs ATP <100uM (hLiMTs [4]; [18]): +VE (IC50 threshold of 100 µM) | hLiMTs/100uM, Proctor (2017) (hLiMTs [4]; hLiMTs, ATP, IC50 threshold 100 µM, ref Proctor et al. 2017): +VE (IC50 threshold of 100 µM) | AC50 (hLiMTs [5]; read-out: ATP endpoint AC50): 30.9 µM | minimal effective concentration (hLiMTs [5]; read-out: ATP endpoint MEC): 10.7 µM | AC50 (hLiMTs [5]; read-out: HCS endpoint AC50): 98.5 µM | minimal effective concentration (hLiMTs [5]; read-out: HCS endpoint MEC): 66.6 µM | DILI prediction hLiMTs (HCS-MEC) (hLiMTs [5]; [17]): -VE | hLiMTs <25x Avg Cmax ATP (hLiMTs [5]; hLiMTs, ATP endpoint, cut-off <25x Avg Cmax): -ve | hLiMTs <100x Avg Cmaxu ATP (hLiMTs [5]; hLiMTs, ATP endpoint, cut-off <100x Avg Cmaxu): -ve | hLiMTs <25x Avg Cmax HCS (hLiMTs [5]; hLiMTs, HCS endpoints, cut-off <25x Avg Cmax): -ve | hLiMTs <100x Avg Cmaxu HCS (hLiMTs [5]; hLiMTs, HCS endpoints, cut-off <100x Avg Cmaxu): -ve | hLiMTs <25x Avg Cmax All (hLiMTs [5]; hLiMTs, all endpoints (ATP and HCS), cut-off <25x Avg Cmax): -ve | hLiMTs Cmax max All (hLiMTs [5]; hLiMTs, all endpoints, Cmax max used): -ve | hLiMTs Cmax min All (hLiMTs [5]; hLiMTs, all endpoints, Cmax min used): -ve | hLiMTs <10 uM All (hLiMTs [5]; hLiMTs, all endpoints, cut-off <10 uM): -ve | hLiMTs <100x Avg Cmaxu All (hLiMTs [5]; hLiMTs, all endpoints, cut-off <100x Avg Cmaxu): -ve | Partition Hybrid HRM Score [6]: -VE | Ro2 Hybrid HRM Score [6]: -VE | Partition Hybrid HRM Score ≥4, Aleo (2019) [6, 19]: -VE | Partition Hybrid HRM Score ≥8, Aleo (2019) [6, 19]: -VE | Rule of Two hybrid HRM Score ≥3, Aleo (2019) [6, 19]: -VE | Rule of Two hybrid HRM Score ≥8, Aleo (2019) [6, 19]: -VE | PHH/100uM, Proctor (2017) (PHH [7]; 2D PHH, ATP, IC50 threshold 100 µM, ref Proctor et al. 2017): -VE | PHH ATP <100uM (PHH [7]; [18]): -VE | Cmax [8]: 366 nM | DILI severity category (Chen et al. [2016]) ([9]; LTKB DILIrank category, ref Chen et al. 2016): No | DILI severity category (Chen 2016) ([9]; human DILI classification, LTKB DILIrank, ref Chen et al. 2016): No | DILI severity category ([9]; human DILI severity, ref Chen et al.): No | DILI +VE (5-8), DILI -VE (-4) ([9]; ref Chen 2016): -VE | DILI severity category ([9]; ref Chen 2016): vNo-DILI-Concern | fu [10]: 0.277 | hLiMTs ATP <20 x Cmax (PHH spheroids): -VE | DILI in vitro assay prediction, Vorrink (2018) (PHH spheroids; PHH spheroids, ATP, 14 days, IC20 < 20 × Cmax.tot, ref Vorrink et al. 2018): -VE | Cytotoxicity PHH 48 hrs (PHH [11]): -VE

NC(N)=Nc1nc(CSCCC(N)=NS(N)(=O)=O)cs1 [famotidine]
In vivo DILI ([1]; ref Albrecht 2019): -VE | In vivo DILI ([1]; ref Dawson 2012): +VE | In vivo DILI ([1]; ref Garside 2014): +VE | In vivo DILI ([1]; ref O'Brien 2006): +VE | In vivo DILI ([1]; ref Xu 2008): -VE | DILI Score (FDA) (1-8) [12]: 3 | Inhibition of rBsep cutoff<1& cmax u>.2 (rBsep): -VE | Inhibition of rBsep cutoff<3 (rBsep): -VE | Cytotoxicity HepG2 48 hrs (HepG2): -VE | Structural based (HCI) (HepG2 cells [3]): +VE | Structural based (HCI) (human hepatocytes): -VE | DILI +VE (5-8), DILI -VE (-4) ([9]; ref Chen 2016): +VE | DILI severity category ([9]; ref Chen 2016): vLess-DILI-Concern | Cluster 1-6 +VE Assay [13]: -VE | Cytotoxicity PHH 48 hrs (PHH [11]): -VE

CC(CCc1ccccc1)NCC(O)c1ccc(O)c(C(N)=O)c1 (stereo not shown) [labetalol]
In vivo DILI ([1]; […]): +VE | In vivo DILI ([1]; ref Albrecht 2019): +VE | In vivo DILI ([1]; ref Aleo 2019): +VE | In vivo DILI ([1]; ref Garside 2014): +VE | In vivo DILI ([1]; ref O'Brien 2006): +VE | In vivo DILI ([1]; ref Persson 2013): +VE | In vivo DILI ([1]; ref Vorrink 2018): +VE | In vivo DILI ([1]; ref Xu 2008): +VE | Cluser analysis (HepG2 cells [14]): -VE | Structural based (HCI) (HepG2 cells [14]): -VE | DILI Score (FDA) (1-8) [12]: 8 | Cytotoxicity HepG2 48 hrs (HepG2): +VE | Structural based (HCI) (HepG2 cells [3]): +VE | Structural based (HCI) (human hepatocytes): +VE | DILI +VE (5-8), DILI -VE (-4) ([9]; ref Chen 2016): +VE | DILI severity category ([9]; ref Chen 2016): vMost-DILI-Concern | hLiMTs ATP <20 x Cmax (PHH spheroids): -VE | Cluster 1-6 +VE Assay [13]: +VE | Cytotoxicity PHH 48 hrs (PHH [11]): +VE

Cc1oncc1C(=O)Nc1ccc(C(F)(F)F)cc1 [leflunomide]
In vivo DILI ([1]; ref Albrecht 2019): +VE | In vivo DILI ([1]; ref Aleo 2019): +VE | In vivo DILI ([1]; ref Dawson 2012): +VE | In vivo DILI ([1]; ref Garside 2014): +VE | In vivo DILI ([1]; ref Gustafsson 2014): +VE | In vivo DILI ([1]; ref O'Brien 2006): +VE | In vivo DILI ([1]; ref Schadt 2015): +VE | In vivo DILI ([1]; ref Xu 2008): +VE | DILI Score (FDA) (1-8) [12]: 8 | Inhibition of rBsep cutoff<1& cmax u>.2 (rBsep): -VE | Inhibition of rBsep cutoff<3 (rBsep): +VE | Cytotoxicity HepG2 48 hrs (HepG2): +VE | THLE-Null [15]: -VE | THLE-Null/3A4 [15]: -VE | Structural based (HCI) (HepG2 cells [3]): +VE | Partition Hybrid HRM Score [6]: +VE | Ro2 Hybrid HRM Score [6]: +VE | Structural based (HCI) (human hepatocytes): -VE | DILI +VE (5-8), DILI -VE (-4) ([9]; ref Chen 2016): +VE | DILI severity category ([9]; ref Chen 2016): vMost-DILI-Concern | Cellular toxicity (3T3 cells) [16]: -VE | Combined Assay [16]: -VE | GSH adduct HML [16]: +VE | Hepatocyte cellular toxicity [16]: -VE | MitoTox 3T3 [16]: -VE | TDI CYP3A4 [16]: -VE | hBSEP inhibition [16]: -VE | Cluster 1-6 +VE Assay [13]: -VE | Cytotoxicity PHH 48 hrs (PHH [11]): +VE

Cc1ccnc2c1NC(=O)c1cccnc1N2C1CC1 [nevirapine]
In vivo DILI ([1]; […]): +VE | In vivo DILI ([1]; ref Albrecht 2019): +VE | In vivo DILI ([1]; ref Aleo 2019): +VE | In vivo DILI ([1]; ref Garside 2014): +VE | In vivo DILI ([1]; ref Schadt 2015): +VE | DILI Score (FDA) (1-8) [12]: 8 | Cytotoxicity HepG2 48 hrs (HepG2): +VE | Partition Hybrid HRM Score [6]: +VE | Ro2 Hybrid HRM Score [6]: -VE | DILI +VE (5-8), DILI -VE (-4) ([9]; ref Chen 2016): +VE | DILI severity category ([9]; ref Chen 2016): vMost-DILI-Concern | Cellular toxicity (3T3 cells) [16]: -VE | Combined Assay [16]: +VE | GSH adduct HML [16]: +VE | Hepatocyte cellular toxicity [16]: -VE | MitoTox 3T3 [16]: +VE | TDI CYP3A4 [16]: -VE | hBSEP inhibition [16]: -VE | Cluster 1-6 +VE Assay [13]: -VE | Cytotoxicity PHH 48 hrs (PHH [11]): +VE
